Experimental data: patent publication US9969687B2, “Compounds useful as CCR9 modulators” (Norgine B.V., priority 2013, dated 2018)

Experiments:
CCR9 [1] = target: T1, CCR9 (Homo sapiens (Human), UniProt P51686); assay: FLIPR calcium flux assay using MOLT4 cells, TECK stimulation; format: cell-based; conditions: MOLT4 cells (human T-cell line)
In short: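 MOLT4 cells in HBSS/20 mM HEPES with probenecid, Fluo-4 NW loaded, preincubated with compound (10 μM-0.1 nM final, half-log) for 60 min before TECK stimulation. Calcium rise read on FLIPR; IC50 from four-parameter fit, converted to Ki using TECK concentration and same-day TECK EC50.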

CCR9 [2] = target: T1, CCR9; assay: FLIPR calcium flux assay using hCCR9 over expressed cells (Chem1-hCCR9), TECK stimulation; format: cell-based; conditions: Chem1-hCCR9 overexpressing cells
In short: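 Chem1 cells overexpressing hCCR9, loaded with Fluo-4 NW dye (HBSS/20 mM HEPES, probenecid), preincubated 60 min with compound (10 μM-0.1 nM final), then stimulated with TECK at EC80. Calcium rise read on FLIPR; IC50 from four-parameter fit, Ki derived from IC50 using TECK concentration and same-day TECK EC50.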

T1 sequence (P51686 whole entry): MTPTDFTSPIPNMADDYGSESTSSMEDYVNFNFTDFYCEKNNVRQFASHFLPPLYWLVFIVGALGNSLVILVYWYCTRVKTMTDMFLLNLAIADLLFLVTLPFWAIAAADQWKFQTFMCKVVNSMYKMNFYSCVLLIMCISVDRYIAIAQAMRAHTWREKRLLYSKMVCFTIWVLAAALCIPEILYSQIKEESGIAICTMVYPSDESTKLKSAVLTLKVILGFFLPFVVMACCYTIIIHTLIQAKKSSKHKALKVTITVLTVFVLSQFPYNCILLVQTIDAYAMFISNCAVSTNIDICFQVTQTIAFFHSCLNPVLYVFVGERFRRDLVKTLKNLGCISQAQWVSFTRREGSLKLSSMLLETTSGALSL

Compound | Ki (CCR9 [1]) | Ki (CCR9 [2])
CCc1c(OC)cncc1N1C(=O)c2c(Cl)ccc(NS(=O)(=O)c3ccc(C(C)(C)C)cc3)c2C1=O [Compound 257] | 25 nM | 21 nM
Cc1ccc(N2C(=O)c3c(Cl)ccc(NS(=O)(=O)c4ccc(C(C)(C)C)cc4)c3C2=O)c(C)n1 [Compound 224] | 5 nM | 6 nM
COc1cncc(N2C(=O)c3c(Cl)ccc(NS(=O)(=O)c4ccc(C(C)(C)C)cc4)c3C2=O)c1 [Compound 90, 4-(tert-butyl)-N-(7-chloro-2-(5-methoxypyridin-3-yl)-1,3-dioxoisoindolin-4-yl)benzenesulfonamide] | 22 nM | 174 nM
COC(=O)c1sccc1N1C(=O)c2c(Cl)ccc(NS(=O)(=O)c3ccc(C(C)(C)C)cc3)c2C1=O [Compound 155, methyl 3-(4-((4-(tert-butyl)phenyl)sulfonamido)-7-chloro-1,3-dioxoisoindolin-2-yl)thiophene-2-carboxylate] | 44 nM | 135 nM
COc1ccc(N2C(=O)c3c(Cl)ccc(NS(=O)(=O)c4ccc(C(C)(C)C)cc4)c3C2=O)c(OC)n1 [Compound 230] | 8 nM | 6 nM
COc1ncccc1CN1C(=O)c2c(Cl)ccc(NS(=O)(=O)c3ccc(C(C)(C)C)cc3)c2C1=O [Compound 247] | 78 nM | 51 nM
CC(C)(C)c1ccc(S(=O)(=O)Nc2ccc(Cl)c3c2C(=O)N(c2ccsc2C#N)C3=O)cc1 [Compound 232] | 7 nM | 3 nM
Cn1ccc(N2C(=O)c3c(Cl)ccc(NS(=O)(=O)c4ccc(C(C)(C)C)cc4)c3C2=O)n1 [Compound 145] | 129 nM | 73 nM
CC(C)(C)c1ccc(S(=O)(=O)Nc2ccc(Cl)c3c2C(=O)N(c2ccccn2)C3=O)cc1 [Compound 222] | 6 nM | 12 nM
Cc1nccnc1N1C(=O)c2c(Cl)ccc(NS(=O)(=O)c3ccc(C(C)(C)C)cc3)c2C1=O [Compound 270] | 23 nM | 61 nM
CC(C)(C)c1ccc(S(=O)(=O)Nc2ccc(Cl)c3c2C(=O)N(Cc2cccnc2)C3=O)cc1 [Compound 64, 4-(tert-butyl)-N-(7-chloro-1,3-dioxo-2-(pyridin-3-ylmethyl)isoindolin-4-yl)benzenesulfonamide] | 22 nM | 27 nM
COc1cncc(CN2C(=O)c3c(Cl)ccc(NS(=O)(=O)c4ccc(C(C)(C)C)cc4)c3C2=O)c1 [Compound 212] | 59 nM | 60 nM
Cc1cc(C)c(CN2C(=O)c3c(Cl)ccc(NS(=O)(=O)c4ccc(C(C)(C)C)cc4)c3C2=O)c(=O)[nH]1 [Compound 283] | 15 nM | 20 nM
COc1nccc(C)c1N1C(=O)c2c(Cl)ccc(NS(=O)(=O)c3ccc(C(C)(C)C)cc3)c2C1=O [Compound 237] | 28 nM | 9 nM
Cc1cnc(N2C(=O)c3c(Cl)ccc(NS(=O)(=O)c4ccc(C(C)(C)C)cc4)c3C2=O)cn1 [Compound 275] | 32 nM | 54 nM
CC(C)(C)c1ccc(S(=O)(=O)Nc2ccc(Cl)c3c2C(=O)N(c2ccc[n+]([O-])c2)C3=O)cc1 [Compound 44, 3-(4-(4-(tert-butyl)phenylsulfonamido)-7-chloro-1,3-dioxoisoindolin-2-yl)pyridine 1-oxide] | 16 nM | 179 nM
Cn1cncc1N1C(=O)c2c(Cl)ccc(NS(=O)(=O)c3ccc(C(C)(C)C)cc3)c2C1=O [Compound 192] | 4 nM | 12 nM
CC(C)(C)c1ccc(S(=O)(=O)Nc2ccc(C#N)c3c2C(=O)N(Cc2cccnc2)C3=O)cc1 [Compound 82, 4-(tert-butyl)-N-(7-cyano-1,3-dioxo-2-(pyridin-3-ylmethyl)isoindolin-4-yl)benzenesulfonamide] | 19 nM | 98 nM
CC(C)(C)c1ccc(S(=O)(=O)Nc2ccc(Cl)c3c2C(=O)N(Cc2c(F)ccc[n+]2[O-])C3=O)cc1 [Compound 241] | 5 nM | 7 nM
Cc1cnccc1N1C(=O)c2c(Cl)ccc(NS(=O)(=O)c3ccc(C(C)(C)C)cc3)c2C1=O [Compound 244] | 6 nM | 3 nM
CC(C)(C)c1ccc(S(=O)(=O)Nc2ccc(Cl)c3c2C(=O)N(c2cc(C#N)ccn2)C3=O)cc1 [Compound 200] | 45 nM | 92 nM
CC(C)(C)c1ccc(S(=O)(=O)Nc2ccc(Cl)c3c2C(=O)N(Cc2ccc[nH]c2=O)C3=O)cc1 [Compound 284] | 7 nM | 12 nM
